# Measurements from patent publication US8008491B2, “Substituted AZA-indoles as inhibitors of poly(ADP-ribose) polymerase (PARP)” (Aventis Pharmaceuticals, Inc., priority 2003, dated 2011).
# Structures can show the parent of a compound that is named as a salt.
# System: Male Sprague-Dawley rats
# Assay: Myocardial ischemia model: coronary artery occlusion and reperfusion, infarct size
# Format: in vivo, rat
# Settings: 10 mg/kg i.v. 5 min prior to reperfusion (Example 3); 20 min occlusion, 60 min reperfusion
# Excerpt: Male Sprague-Dawley rats are anesthetized and the chest is opened. A thin silk thread is placed around the left anterior descending coronary artery. The silk is passed through a plastic tube and the chest is closed. After stable hemodynamics, the coronary artery is occluded by applying tension to the thread via the tube. Successful occlusion is confirmed by a decrease in systolic blood pressure and alterations in ECG. Reperfusion is initiated by releasing the tension on the ligature.
# For testing efficacy of Example 3 in this animal model, animals are divided into three groups. One group received the compound of Example 3 at 10 mg/kg i.v. 10 min prior to occlusion. A second group received compound of Example 3 at the same dose 5 min prior to reperfusion. The third group served as vehicle control. The period of occlusion is 20 min, followed by reperfusion for 60 min. After sacrifice infarct size is measured by staining of heart tissue slices with triphenyltetrazolium chloride and expressed as a percent (%) of area at risk.
# A similar study is carried out with cariporide, a reference standard.
row,SMILES,"infarct size (% of area at risk), effect when given prior to reperfusion"
1,"CC(C)c1ccc(C(=O)NC(=N)N)cc1S(C)(=O)=O [cariporide, reference compound]",no effect

# Same assay, conditions: 10 mg/kg i.v. 10 min prior to occlusion (Example 3); 20 min occlusion, 60 min reperfusion
row,SMILES,"infarct size (% of area at risk), effect when given prior to ischemia"
1,"CC(C)c1ccc(C(=O)NC(=N)N)cc1S(C)(=O)=O [cariporide, reference compound]",significant protection

# Target: T1, human PARP (PARP1) (Homo sapiens, UniProt P09874)
# Assay: Radioactivity enzyme assay: incorporation of labeled NAD into acid-precipitated protein
# Format: biochemical
# Settings: reference compounds, NAD 200 μm
# Description: Full length human PARP (PARP1) is assembled from PCR fragments of a clone from a human brain cDNA library and two Incyte clones. The PARP gene (3046 bp) is sub-cloned into pFastBac-HTb vector to give PARP-pFastBac-HTh and the sequence of this clone is verified. PARP-pFastBac-HTb is expressed to obtain protein using the Bac-to-Bac expression protocol from Gibco-BRL. The recombinant virus generated is used to scale up the material for purification.
# Cell pellets from cell broth of cells expressing PARP are treated with a cocktail of protease inhibitors and lysed by 4 freeze-thaw cycles. The material is suspended in 10 mM HEPES/0.1M NaCl/pH 7.2, stirred, and then centrifuged. A 40%-70% ammonium sulfate cut of protein pellet is obtained from the supernatant. The pellet is solubilized in 10 mM HEPES/pH 7.2 and centrifuged. The supernatant buffer is exchanged to 10 mM HEPES/pH 7.2/0.1M NaCl/25% glycerol by dialysis or with a desalting column. The enzyme preparation is stored at −20° C. until use.
# Incorporation of radioactivity from labeled NAD into acid-precipitated protein is measured. […] After washing with TCA and ethanol, the filter is dried and counted for tritium CPM after addition of scintillation fluid.
# T1 sequence (P09874 whole entry): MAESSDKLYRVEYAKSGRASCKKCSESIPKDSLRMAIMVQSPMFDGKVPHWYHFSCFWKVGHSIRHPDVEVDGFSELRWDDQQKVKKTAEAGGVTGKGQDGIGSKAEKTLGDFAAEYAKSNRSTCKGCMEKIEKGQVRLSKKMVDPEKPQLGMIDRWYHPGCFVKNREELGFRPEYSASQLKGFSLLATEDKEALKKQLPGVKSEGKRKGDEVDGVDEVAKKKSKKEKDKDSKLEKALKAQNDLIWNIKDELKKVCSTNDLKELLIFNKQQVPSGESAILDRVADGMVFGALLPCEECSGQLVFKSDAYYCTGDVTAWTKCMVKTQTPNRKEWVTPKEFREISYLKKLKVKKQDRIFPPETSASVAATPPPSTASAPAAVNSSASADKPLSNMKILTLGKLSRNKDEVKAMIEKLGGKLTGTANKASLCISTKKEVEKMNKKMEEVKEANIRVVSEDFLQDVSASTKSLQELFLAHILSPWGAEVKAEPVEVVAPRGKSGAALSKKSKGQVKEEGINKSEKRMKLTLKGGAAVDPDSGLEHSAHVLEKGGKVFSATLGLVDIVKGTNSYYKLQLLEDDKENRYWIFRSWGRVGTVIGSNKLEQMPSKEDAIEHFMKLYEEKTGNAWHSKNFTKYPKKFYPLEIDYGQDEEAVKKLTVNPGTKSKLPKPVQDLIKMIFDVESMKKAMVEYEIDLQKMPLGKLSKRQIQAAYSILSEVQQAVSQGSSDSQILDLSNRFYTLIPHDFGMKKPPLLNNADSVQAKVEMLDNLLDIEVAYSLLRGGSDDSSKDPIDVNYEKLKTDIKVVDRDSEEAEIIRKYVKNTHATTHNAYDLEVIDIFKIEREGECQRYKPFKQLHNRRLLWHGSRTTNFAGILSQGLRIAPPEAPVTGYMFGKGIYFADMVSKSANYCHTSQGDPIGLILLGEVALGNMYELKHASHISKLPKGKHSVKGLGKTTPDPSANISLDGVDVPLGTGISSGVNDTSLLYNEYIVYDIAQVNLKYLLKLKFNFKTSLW
row,IC50 [µM],SMILES
1,1,"Oc1cccc2c(O)nccc12 [1,5-isoquinolinediol]"

# Target: T1, human PARP (PARP1)
# Assay: PARP enzyme assay of Table 3 (radioactive enzyme assay or 'ELISA' enzyme assay);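 note: Baculovirus-expressed PARP1 from insect cells, activity read as tritium from labeled NAD in acid-precipitated protein, or as biotin-NAD built into plate-bound histone by absorbance at 450 nm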
# Settings: IC50 (μM), fifty percent inhibitory concentration; recombinant human PARP
# Description: The compounds of this invention are then tested with this enzyme preparation using either the radioactive enzyme assay or by the “ELISA” enzyme assay as set forth below.
# Incorporation of radioactivity from labeled NAD into acid-precipitated protein is measured. The reaction mixture (volume 100 μL or 50 μL, in a test-tube or 96-well plate) contained 100 μg/mL calf thymus DNA (sonicated), 100 μg/mL histones, 100 mM Tris (pH 8.0), 1.0 mM DTT, 10 mM MgCl2, NAD (200 μm, 0.65 microcurie/mL), and varying amounts of enzyme. The reaction was incubated for 10 min at 37° C. or at room temperature for 60 min. The reaction was stopped and protein precipitated by addition of ice-cold trichloroacetic acid (TCA; 10% or 20% aqueous w/v). After brief storage in ice or at 4° C. for 2 hrs, the reaction mixture is filtered under vacuum through a glass fiber filter (2.5 cm disc, or 96-well filter plate). After washing with TCA and ethanol, the filter is dried and counted for tritium CPM after addition of scintillation fluid.
# Incorporation of biotin-NAD into histone coated on plate is measured. A 96-well protein-binding EIA plate is coated with histone and blocked with bovine serum albumin. The reaction mixture (50 μL) contained DNA, buffer, enzyme, (test compound), and 250 μM of NAD and 5 μL of biotin-NAD (Trevigen). After reaction at room temperature the wells are washed and treated with Extravidin (Sigma). After incubation and washing color is developed with the peroxidase substrate TMB (Sigma). The TMB reaction is quenched with 2M sulfurric acid and the absorbance at 450 nm is read.
row,IC50 [µM],SMILES
1,10,"CC(C)(C)c1ccc(-n2c(N3CCNCC3)c(C=O)c3ccccc32)cc1 [Example 11B-4, 2-(Piperazin-1-yl)-1-(4-tert-butylphenyl)-1H-indole-3-carboxaldehyde]"
2,8.8,CC(C)(C)OC(=O)NCCN1CCN(c2c(C=O)c3ccccc3n2-c2ccccc2)CC1 [Example 19]
3,4.6,"O=Cc1c(N2CCN(CCO)CC2)n(-c2ccccc2)c2ccccc12 [Example 2, 2-[4-(2-hydroxyethyl)piperazin-1-yl]-1-phenyl-1H-indole-3-carboxaldehyde]"
4,2.5,"O=Cc1c(N2CCNCC2)n(-c2cccc(F)c2)c2ccccc12 [Example 11B-10, 2-(Piperazin-1-yl)-1-(3-fluorophenyl)-1H-indole-3-carboxaldehyde]"
5,1.9,"O=Cc1c(N2CCNCC2)n(-c2cccc(Br)c2)c2ccccc12 [Example 49, 1-(3-Bromophenyl)-2-piperazin-1-yl-1H-indole-3-carboxaldehyde]"
6,0.99,"CC(=O)Nc1cccc(-n2c(N3CCNCC3)c(C=O)c3ccccc32)c1 [Example 62, N-{3-[3-Formyl-2-(piperazin-1-yl)-indol-1-yl]phenyl}-acetamide Hydrochloride]"
7,4.5,"COc1ccc(-n2c(N3CCNCC3)c(C=O)c3ccccc32)cc1 [Example 11B-3, 2-(Piperazin-1-yl)-1-(4-methoxyphenyl)-1H-indole-3-carboxaldehyde]"
8,5.1,O=Cc1c(N2CC3CC2CN3)n(-c2ccccc2)c2ccccc12 (stereo not drawn) [Example 21]
9,1.5,"C=Cc1ccc(-n2c(N3CCNCC3)c(C=O)c3ccccc32)cc1 [Example 56, 2-(Piperazin-1-yl)-1-(4-vinylphenyl)-1H-indole-3-carboxaldehyde]"
10,4,"O=Cc1c(N2CCNCC2)n(-c2ccc(Cl)cc2)c2ccccc12 [Example 11B-6, 2-(Piperazin-1-yl)-1-(4-chlorophenyl)-1H-indole-3-carboxaldehyde]"
11,5.1,"CC(C)(C)OC(=O)N1CC2CC1CN2c1c(C=O)c2ccccc2n1-c1ccccc1 (stereo not drawn) [Example 45, 5-(3-Formyl-1-phenyl-1H-indol-2yl)-2,5-diazabicyclo[2.2.1]heptane-2-carboxylic acid tert-butyl ester]"
12,6.9,"O=Cc1c(N2CCNCC2)n(-c2ccc(-c3ccccc3)cc2)c2ccccc12 [Example 47, 1-(Biphenyl-4-yl)-2-piperazin-1-yl-1H-indole-3-carboxaldehyde Hydrochloride]"
13,2.5,"O=Cc1c(N2CCNCC2)n(-c2cccc([N+](=O)[O-])c2)c2ccccc12 [Example 11B-1, 2-(Piperazin-1-yl)-1-(3-nitrophenyl)-1H-indole-3-carboxaldehyde]"
14,2.7,"CCCCc1ccc(-n2c(N3CCNCC3)c(C=O)c3ccccc32)cc1 [Example 61, 1-(4-Butylphenyl-2-(piperazin-1-yl)-1H-indole-3-carboxaldehyde Hydrochloride]"
15,3.1,"O=Cc1c(N2CCNCC2)n(-c2ccc(F)cc2)c2ccccc12 [Example 54, 1-(4-Fluorophenyl)-2-(piperazin-1-yl)-1H-indole-3-carboxaldehyde Hydrochloride]"
16,15.1,"O=Cc1c(N2CCSCC2)n(-c2ccccc2)c2ccccc12 [Example 1, 1-Phenyl-2-(thiomorphin-4-yl)-1H-indole-3-carboxaldehyde]"
17,42.2,"O=Cc1c(N2CCNCC2)n(-c2ccc(Oc3ccccc3)cc2)c2ccccc12 [Example 52, 1(4-Phenoxyphenyl)-2-(piperazin-1-y)l-1H-indole-3-carboxaldehyde]"
18,1.4,"Cc1ccc(-n2c(N3CCNCC3)c(C=O)c3ccccc32)cc1[N+](=O)[O-] [Example 50, 1-(4-Methyl-3-nitrophenyl)-2-(piperazin-1-yl)-1H-indole-3-carboxaldehyde]"
19,15.5,"CCc1ccc(-n2c(N3CCNCC3)c(C=O)c3ccccc32)cc1 [Example 48, 1-(4-Ethylphenyl)-2-(piperazin-1-yl)-1H-indole-3-carboxaldehyde Hydrochloride]"

row,IC50 [µM],SMILES
1,3,"O=Cc1c(N2CCNCC2)n(-c2ccc(Br)cc2)c2ccccc12 [Example 11B-5, 2-(Piperazin-1-yl)-1-(4-bromophenyl)-1H-indole-3-carboxaldehyde]"
2,43.1,"O=Cc1c(N2CCN(CCO)CC2)n(-c2ccccc2)c2ccccc12 [Example 41, 2-[4-(2-Hydroxethyl)piperazin-1-yl]-1-phenyl-1H-indole-3-carboxaldehyde Hydrochloride]"
3,11.4,"O=Cc1c(N2CCOCC2)n(-c2ccccc2)c2ccccc12 [Example 43, 2-(Morpholin-4-yl)-1-phenyl-1H-indole-3-carboxaldehyde]"
4,2.3,"N#Cc1ccc(-n2c(N3CCNCC3)c(C=O)c3ccccc32)cc1 [Example 63, 4-[3-Formyl-2-(piperazin-1-yl)-indol-1-yl]-benzonitrile]"
5,26,"CN(C)c1ccc(-n2c(N3CCNCC3)c(C=O)c3ccccc32)cc1 [Example 51, 1-(4-Dimethylaminophenyl)-2-piperazin-1-yl-1H-indole-3-carboxaldehyde]"
6,4,"O=Cc1c(N2CCNCC2)n(-c2cccc3ccccc23)c2ccccc12 [Example 11B-2, 2-(Piperazin-1-yl)-1-(1-naphthyl)-1H-indole-3-carboxaldehyde]"
7,3,"Cc1cccc(-n2c(N3CCNCC3)c(C=O)c3ccccc32)c1 [Example 11B-11, 2-(Piperazin-1-yl)-1-(3-methylphenyl)-1H-indole-3-carboxaldehyde]"
8,1.4,"O=Cc1c(N2CCNCC2)n(-c2cccc(CO)c2)c2ccccc12 [Example 57, 1-(3-Hydroxymethylphenyl)-2-(piperazin-1-yl)-1H-indole-3-carboxaldehyde]"
9,4,"CSc1ccc(-n2c(N3CCNCC3)c(C=O)c3ccccc32)cc1 [Example 11B-9, 2-(Piperazin-1-yl)-1-(4-thiomethylphenyl)-1H-indole-3-carboxaldehyde]"
10,4,"O=Cc1c(N2CCNCC2)n(-c2ccc(F)c(Cl)c2)c2ccccc12 [Example 11B-7, 2-(Piperazin-1-yl)-1-(3-chloro-4-fluorophenyl)-1H-indole-3-carboxaldehyde]"
11,0.85,"CCOc1cccc(-n2c(N3CCNCC3)c(C=O)c3ccccc32)c1 [Example 58, 1-(3-Ethoxyphenyl)-2-(piperazin-1-yl)-1H-indole-3-carboxaldehyde]"
12,4.5,"O=Cc1c(N2CCCNCC2)n(-c2ccccc2)c2ccccc12 [Example 22, 2-[1,4]Diazepan-1-yl-1-phenyl-1H-indole-3-carboxaldehyde]"
13,5.5,"COc1cccc(-n2c(N3CCNCC3)c(C=O)c3ccccc32)c1 [Example 11B-8, 2-(Piperazin-1-yl)-1-(3-methoxyphenyl)-1H-indole-3-carboxaldehyde]"
14,2,"O=Cc1c(N2CCNCC2)n(-c2ccsc2)c2ccccc12 [Example 12, 2-(Piperazin-1-yl)-1-(thien-3-yl)-1H-indole-3-carboxaldehyde]"
15,19.9,"Cc1ccc(-n2c(N3CCNCC3)c(C=O)c3ccccc32)cc1 [Example 53, 1-(4-Methylphenyl)-2-(piperazin-1-yl)-1H-indole-3-carboxaldehyde]"
16,3,"O=Cc1c(N2CCNCC2)n(-c2cccnc2)c2ccccc12 [Example 13, 2-(Piperazin-1-yl)-1-(pyridin-3-yl)-1H-indole-3-carboxaldehyde]"
17,0.85,O=Cc1cccc(-n2c(N3CCNCC3)c(C=O)c3ccccc32)c1 [Example 46]
18,4.1,O=Cc1c(N2CCNCC2)n(-c2cccc(Cl)c2)c2ccccc12 [Example 55]

row,SMILES,IC50 [µM]
1,"Cn1c(N2CCNCC2)c(C=O)c2ccccc21 [Example 9, 2-(Piperazin-1-yl)-1-methyl-1H-indole-3-carboxaldehyde]",27.5

# System: not given
# Assay: not given
# Settings: not given
row,melting point [°C],SMILES
1,163 to 165,O=Cc1c(N2CCNCC2)n(Cc2ccccc2)c2ccccc12

# System: HL-60 (human leukemia) cells
# Assay: Cell-based assay: protection from cell death induced by serum deprivation (Alamar Blue)
# Settings: median effective concentration preventing cell death, HL-60, 0.1% FCS, 24 hr
# Description: HL-60 (human leukemia) cells are grown and maintained using standard procedures in RPMI 1640+Glutamax medium supplemented with 10% fetal calf serum (FCS). For assay, cells are suspended in medium supplemented with 0.1% FCS at 0.5 million cells/mL and seeded into 96 well plates (100 μL/well). After preincubation for 3 hrs, cells are treated with compound for 1 hr, then Alamar Blue (Serotec) is added to the cells. After a further 24 hr incubation, fluorescence is measured (ex 560 nm, em 590 nm). Decrease in fluorescence compared to control cells (10 μM of a potent PARP inhibitor) is a measure of cell death. Increased fluorescence in the presence of test compound indicates protection from cell death induced by serum deprivation. For detection of polyADP-ribosylation, cells are subjected to serum deprivation in the presence and absence of compound. Cells are lysed and proteins are run on an SDS-PAGE gel. PolyADP-ribosylated proteins are detected with antibody to polyADP-ribose (Alexis or Calbiochem).
# The results obtained from this study are expressed as EC50 (median effective concentration of the test compound that was effective in preventing the cell death—expressed in micromolar (μM) concentration) for each of the tested compounds and are summarized in Table 4.
row,SMILES,EC50 [µM]
1,"O=Cc1c(N2CCN(CCO)CC2)n(-c2ccccc2)c2ccccc12 [Example 2, 2-[4-(2-hydroxyethyl)piperazin-1-yl]-1-phenyl-1H-indole-3-carboxaldehyde]",3.4
2,"Cn1c(N2CCNCC2)c(C=O)c2ccccc21 [Example 9, 2-(Piperazin-1-yl)-1-methyl-1H-indole-3-carboxaldehyde]",8
3,"O=Cc1c(N2CCNCC2)n(-c2ccsc2)c2ccccc12 [Example 12, 2-(Piperazin-1-yl)-1-(thien-3-yl)-1H-indole-3-carboxaldehyde]",3
